According to ChEMBL document CHEMBL5096181, “Isoxazole derivatives as anticancer agent: A review on synthetic strategies, mechanism of action and SAR studies” (Eur J Med Chem, 2021):
Converted amounts (≈) assume the structure as drawn. Each block holds one compound with its values, some of them ahead of it.

How the values were obtained:
[1] = system: Huh-7; assay: Cytotoxicity against human Huh-7 cells assessed as cell growth inhibition and measured after 72 hrs by SRB assay; format: functional, cell-based; conditions: Huh-7, 72 h
[2] = system: Mahlavu; assay: Cytotoxicity against human Mahlavu cells assessed as cell growth inhibition and measured after 72 hrs by SRB assay; format: functional, cell-based
[3] = system: MCF7; assay: Cytotoxicity against human MCF7 cells assessed as cell growth inhibition and measured after 72 hrs by SRB assay; format: functional, cell-based; conditions: MCF7, 72 h
[4] = system: DU-145; assay: Cytotoxicity against human DU-145 cells assessed as inhibition of cell growth by MTT assay; format: functional, cell-based
[5] = system: MCF7; assay: Anticancer activity against human MCF7 cells assessed as inhibition of cell proliferation measured after 4 hrs by MTT assay; format: functional, cell-based; conditions: MCF7, 4 h
[6] = system: LNCaP; assay: Antiproliferative activity against human LNCaP cells assessed as cell growth inhibition by MTT assay; format: functional, cell-based
[7] = system: PC-3; assay: Antiproliferative activity against human PC-3 cells assessed as cell growth inhibition by MTT assay; format: functional, cell-based
[8] = system: LNCaP C4-2B; assay: Antiproliferative activity against human LNCaP C4-2B cells assessed as cell growth inhibition by MTT assay; format: functional, cell-based
[9] = system: CWR22R; assay: Antiproliferative activity against human 22Rv1 cells assessed as cell growth inhibition by MTT assay; format: functional, cell-based
[10] = target: Tubulin; assay: Inhibition of tubulin polymerization (unknown origin) by spectrophotometer based analysis; format: protein-complex assay, Homo sapiens
[11] = system: MCF7; assay: Cytotoxicity against human MCF7 cells assessed as cell growth inhibition by MTT assay; format: functional, cell-based
[12] = target: T1, Tyrosine-protein phosphatase non-receptor type 1 (Homo sapiens, UniProt P18031); assay: Inhibition of PTP1B (unknown origin) by SpectraMax 340 microplate reader Analysis
T1 sequence (P18031 whole entry): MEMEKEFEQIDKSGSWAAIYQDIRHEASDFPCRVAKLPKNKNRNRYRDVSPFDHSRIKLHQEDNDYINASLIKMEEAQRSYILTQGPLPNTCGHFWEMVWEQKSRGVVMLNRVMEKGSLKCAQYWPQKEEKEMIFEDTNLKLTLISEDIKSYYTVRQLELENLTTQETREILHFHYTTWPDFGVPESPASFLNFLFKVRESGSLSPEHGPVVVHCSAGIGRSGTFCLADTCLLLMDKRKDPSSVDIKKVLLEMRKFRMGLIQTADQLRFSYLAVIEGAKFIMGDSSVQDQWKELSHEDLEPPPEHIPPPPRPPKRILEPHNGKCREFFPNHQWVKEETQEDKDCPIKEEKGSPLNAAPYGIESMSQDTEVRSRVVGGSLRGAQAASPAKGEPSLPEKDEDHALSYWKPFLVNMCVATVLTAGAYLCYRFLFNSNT

[13] = target: T2, Tyrosine-protein phosphatase non-receptor type 2 (Homo sapiens, UniProt P17706); assay: Inhibition of TCPTP (unknown origin) by SpectraMax 340 microplate reader Analysis
T2 sequence (P17706 whole entry): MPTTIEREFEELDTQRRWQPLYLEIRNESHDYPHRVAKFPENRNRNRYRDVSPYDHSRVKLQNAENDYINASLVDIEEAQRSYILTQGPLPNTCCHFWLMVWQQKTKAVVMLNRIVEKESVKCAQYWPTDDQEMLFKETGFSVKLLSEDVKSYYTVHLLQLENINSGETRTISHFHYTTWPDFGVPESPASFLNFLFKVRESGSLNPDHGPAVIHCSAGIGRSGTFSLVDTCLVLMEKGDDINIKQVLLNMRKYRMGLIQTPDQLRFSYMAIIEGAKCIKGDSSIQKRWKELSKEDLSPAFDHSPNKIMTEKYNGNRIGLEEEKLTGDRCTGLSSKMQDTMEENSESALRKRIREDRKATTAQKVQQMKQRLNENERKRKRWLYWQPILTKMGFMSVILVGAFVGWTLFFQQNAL

[14] = target: T3, Estrogen receptor (Homo sapiens, UniProt P03372); assay: Inhibition of ERalpha (unknown origin) in MCF7 cells measured after 24 to 48 hrs by FRET assay; format: cell-based
T3 sequence (P03372 whole entry): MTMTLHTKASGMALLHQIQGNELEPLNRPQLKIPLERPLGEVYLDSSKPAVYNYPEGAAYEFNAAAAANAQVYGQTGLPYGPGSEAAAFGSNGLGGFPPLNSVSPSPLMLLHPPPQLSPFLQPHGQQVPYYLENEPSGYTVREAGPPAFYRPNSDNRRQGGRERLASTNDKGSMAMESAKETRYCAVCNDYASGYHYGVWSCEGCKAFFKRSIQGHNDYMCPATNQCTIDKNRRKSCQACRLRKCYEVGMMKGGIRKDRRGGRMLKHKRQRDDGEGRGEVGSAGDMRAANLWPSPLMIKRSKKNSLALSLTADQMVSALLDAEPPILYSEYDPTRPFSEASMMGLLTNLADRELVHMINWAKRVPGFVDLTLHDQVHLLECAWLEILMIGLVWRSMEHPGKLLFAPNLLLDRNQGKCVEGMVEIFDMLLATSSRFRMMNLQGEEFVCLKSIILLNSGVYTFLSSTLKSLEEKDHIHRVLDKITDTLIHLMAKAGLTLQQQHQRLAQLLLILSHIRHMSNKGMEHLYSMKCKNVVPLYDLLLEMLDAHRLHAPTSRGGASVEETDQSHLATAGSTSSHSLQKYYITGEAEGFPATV

[15] = system: MCF7R; assay: Cytotoxicity against human MCF7R cells assessed as cell growth inhibition and by MTT assay; format: functional, cell-based
[16] = target: Tubulin (Sus scrofa, UniProt P02554+P02550); assay: Inhibition of pig brain tubulin polymerization by spectrometric method
[17] = system: MCF7; assay: Induction of apoptosis in human MCF7 cells assessed as early apoptosis cells at 2.0 uM measured after 24 hrs by annexin-V-FITC and PI staining based flow cytometry analysis (reference value: 0.486%); format: functional
[18] = system: MCF7; assay: Induction of apoptosis in human MCF7 cells assessed as late apoptosis cells at 2.0 uM measured after 24 hrs by annexin-V-FITC and PI staining based flow cytometry analysis (reference value: 0.529%); format: functional
[19] = target: T4, Aromatase (Homo sapiens, UniProt P11511); assay: Inhibition of human recombinant aromatase expressed in baculovirus insect cell using 7-methoxy-trifluoromethyl coumarin (MFC) as substrate preincubated for 10 mins followed by substrate addition and measured for 30 mins by fluorescence based assay
T4 sequence (P11511 whole entry): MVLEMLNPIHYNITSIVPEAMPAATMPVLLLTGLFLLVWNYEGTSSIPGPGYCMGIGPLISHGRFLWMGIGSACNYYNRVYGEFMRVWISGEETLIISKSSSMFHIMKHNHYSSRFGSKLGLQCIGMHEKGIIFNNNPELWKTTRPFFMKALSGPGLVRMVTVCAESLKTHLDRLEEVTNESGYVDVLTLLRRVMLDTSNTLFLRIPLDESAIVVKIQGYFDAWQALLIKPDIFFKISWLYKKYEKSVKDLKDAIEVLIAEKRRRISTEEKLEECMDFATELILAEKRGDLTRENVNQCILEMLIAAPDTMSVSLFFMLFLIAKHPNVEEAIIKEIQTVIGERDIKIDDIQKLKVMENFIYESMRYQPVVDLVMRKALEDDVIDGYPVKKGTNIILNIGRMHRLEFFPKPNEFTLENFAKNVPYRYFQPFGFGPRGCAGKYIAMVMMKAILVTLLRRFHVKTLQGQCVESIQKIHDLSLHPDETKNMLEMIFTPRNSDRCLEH

SMILES: Cc1ccc(-c2cc(N3CCN(Cc4ccc(C(F)(F)F)cc4)CC3)no2)cc1
- IC50 [1]: 24 µM
- IC50 [2]: > 40 µM
- IC50 [3]: 9.4 µM

SMILES: COc1ccc(C2CC(c3ccno3)=NN2C(N)=O)cc1OC (stereo not given)
- IC50 [4]: 4 µg/mL (≈ 12.6 µM)

- IC50 [5]: 10 µM
SMILES: COc1ccc(-c2oncc2-c2ccccc2Cl)c2ccccc12

- IC50 [6]: 4.31 µM
- IC50 [7]: 2.81 µM
- IC50 [8]: 2.04 µM
- IC50 [10]: 2.87 µM
SMILES: COc1cc(N(Cc2c(C)noc2C)C(=O)CSc2nc3ccccc3s2)cc(OC)c1OC
- IC50 [9]: 2.13 µM

SMILES: Nc1nn(Cc2cc(-c3cccc(C(F)(F)F)c3)no2)c2nc(-c3cccs3)cc(C(F)(F)F)c12
- IC50 [11]: 13.4 µM

SMILES: COc1cccc(-c2cc(Cn3nc(N)c4c(C(F)(F)F)cc(-c5cccs5)nc43)on2)c1
- IC50 [11]: 19.4 µM

SMILES: Fc1ccc(-c2cc(N3CCN(Cc4ccc(C(F)(F)F)cc4)CC3)no2)cc1
- IC50 [1]: 5.3 µM
- IC50 [2]: 6.2 µM
- IC50 [3]: 11.9 µM

SMILES: Cc1cc(COc2ccc(-c3cc(N4CCN(Cc5ccc(C(F)(F)F)cc5)CC4)no3)cc2)n(C)n1
- IC50 [1]: 0.3 µM
- IC50 [2]: 3.7 µM
- IC50 [3]: 1.2 µM

SMILES: CS(=O)(=O)c1ccc(-c2cc(N3CCN(Cc4ccc(C(F)(F)F)cc4)CC3)no2)cc1
- IC50 [1]: 4.2 µM
- IC50 [2]: 26 µM
- IC50 [3]: 2.9 µM

- IC50 [12]: 5.37 µM
- IC50 [13]: 7.58 µM
SMILES: O=C(O)c1cccc(/C=C/c2ccc(Oc3cnoc3-c3cccc(Cl)c3)cc2)c1

- IC50 [14]: 91.1 µM
SMILES: COc1onc(-c2ccc(O)cc2)c1-c1oc2ccccc2c(=O)c1O

- IC50 [12]: 2.05 µM
- IC50 [13]: 13.2 µM
SMILES: O=C(O)c1cccc(/C=C/c2ccc(Oc3cnoc3-c3cccc([N+](=O)[O-])c3)cc2)c1

SMILES: O=S(=O)(Nc1ccc(-c2cn[nH]c2)cc1)c1ccc(Cl)cc1
- IC50 [3]: 50 µM

SMILES: CCCOc1ccc(-c2cc(N3CCN(Cc4ccc(C(F)(F)F)cc4)CC3)no2)cc1
- IC50 [1]: 8.8 µM
- IC50 [2]: 7.7 µM
- IC50 [3]: 4.9 µM

SMILES: COc1ccc(/C=C/c2cc(/C=C/c3ccc(O)c(OC)c3)no2)cc1O
- IC50 [15]: 12 µM
- IC50 [11]: 13.1 µM

- IC50 [5]: 1.23 µM
- IC50 [16]: 3.4 µM
SMILES: CCOc1ccc(-c2cnoc2-c2ccc(OC)c3ccccc23)cc1
- inhibition at 2 µM [17]: 15.3%
- inhibition at 2 µM [18]: 6.44%

- IC50 [12]: 1.75 µM
- IC50 [13]: 36.2 µM
SMILES: O=C(O)c1cccc(/C=C/c2ccc(Oc3cnoc3-c3ccccc3Cl)cc2)c1

SMILES: COc1ccc(C2CC(c3ccno3)=NN2C(N)=O)c(F)c1OC (stereo not given)
- IC50 [4]: 2 µg/mL (≈ 5.98 µM)

- IC50 [19]: 0.0023 µM
SMILES: Cc1c(-c2nocc2C(=O)SC#N)c(=O)n(-c2ccccc2)n1C
